Laboratory results: US7763596B2, “Selective glucocorticoid receptor agonists” (The University of Manchester, priority 2000, dated 2010)
Entries after “also recorded” stand apart in the source; their conditions may differ.

Experiments:
[1] = system: tyrosine amino transferase (TAT); assay: Quantitation of endogenous tyrosine amino transferase (TAT) in the HEPG2 liver cell line; type: cell-based, human; conditions: HEPG2, 1 μM; p=0.014, two tailed t-test
Source text: The HEP G2 cell line (ECACC: 85011430) is derived from human liver epithelial cells from a well differentiated hepatocellular carcinoma. This cell line has functional endogenous GR and is stimulated by GR activation to produce tyrosine amino transferase.
In this method a colourimetric approach is used to quantitate TAT activity. The TAT enzyme catalyses the following reaction: L-tyrosine+2-oxoglutarate⇄4-hydroxyphenylpyruvate (pHPP)+L-glutamate
This reaction also requires pyridoxal phosphate (PLP) as a co-factor.
Strong alkali conditions can then be used to convert pHPP to p-hydroxybenzaldehyde (pHBA) and oxalate. The amount of pHBA can then be assessed by measuring its absorbance at 331 nm (extinction coefficient 19,900 M^−1cm^−1) this figure is then assumed to be directly proportional to TAT activity. HEPG2 cells were cultivated till confluent on a 10 cm plate (˜10^7 cells). These cells were then scraped off and suspended in 500 μl of ice cold 0.14M KCl. The cells were lysed by 3 cycles of 10 second burst sonication at full power (50 W, 20 kHz Sonicator; Jencons, Leighton Buzzard, UK). The cells were kept on ice between each burst. […]
(§1) For each reaction a control reaction was set up without the ketoglutarate. […] The samples were incubated at room temperature for a further 30 mins and then the absorbance of each sample was assessed at 331 nm on a spectrophotometer (Ultrospec III, Pharmacia).

progesterone receptor = target: T1, progesterone receptor (Homo sapiens, UniProt P06401); assay: Classic receptor binding assay, progesterone receptor (data not shown)
T1 sequence (P06401 1-933): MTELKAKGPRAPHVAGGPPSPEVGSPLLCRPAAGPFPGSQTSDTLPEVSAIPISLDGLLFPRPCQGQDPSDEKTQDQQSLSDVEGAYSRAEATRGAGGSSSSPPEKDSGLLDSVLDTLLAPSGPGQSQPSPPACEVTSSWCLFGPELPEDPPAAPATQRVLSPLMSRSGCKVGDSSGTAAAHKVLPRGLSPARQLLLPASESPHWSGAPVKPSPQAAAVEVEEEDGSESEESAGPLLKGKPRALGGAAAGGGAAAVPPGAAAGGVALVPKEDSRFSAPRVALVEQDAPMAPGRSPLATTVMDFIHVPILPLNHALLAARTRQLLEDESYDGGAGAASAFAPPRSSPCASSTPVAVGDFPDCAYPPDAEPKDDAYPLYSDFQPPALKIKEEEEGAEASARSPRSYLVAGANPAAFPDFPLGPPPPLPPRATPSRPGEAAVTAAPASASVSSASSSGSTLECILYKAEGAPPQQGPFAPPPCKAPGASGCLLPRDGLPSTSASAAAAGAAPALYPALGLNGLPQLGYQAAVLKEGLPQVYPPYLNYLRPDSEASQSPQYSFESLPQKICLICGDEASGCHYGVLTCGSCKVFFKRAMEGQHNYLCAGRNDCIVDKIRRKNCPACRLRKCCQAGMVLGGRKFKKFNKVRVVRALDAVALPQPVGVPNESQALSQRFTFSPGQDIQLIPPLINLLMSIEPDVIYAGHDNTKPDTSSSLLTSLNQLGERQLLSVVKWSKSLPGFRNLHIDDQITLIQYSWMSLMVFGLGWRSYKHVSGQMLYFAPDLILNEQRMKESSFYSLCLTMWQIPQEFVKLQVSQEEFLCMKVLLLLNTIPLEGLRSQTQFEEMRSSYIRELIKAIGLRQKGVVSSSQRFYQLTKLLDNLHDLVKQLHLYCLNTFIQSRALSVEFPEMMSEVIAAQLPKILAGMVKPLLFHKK

[2] = system: other members of the steroid receptor super family; assay: Binding to other members of the steroid receptor super family
[3] = system: zymosan induced neutrophil migration; assay: Air pouch model of inflammation, zymosan induced neutrophil migration; type: in vivo, mice
Method: Male outbred Swiss albino mice (18-20 g body weight) were purchased from Bantin and Kingman (T.O. strain; Hull, Humberside) and maintained on a standard chow pellet diet with tap water ad libitum and a 12:00 h light/dark cycle. All animals were housed for 3 days prior to experimentation to allow body weight to reach 20-22 g. On the day of experiment mice ranged from 24-26 g.
Air-pouches were formed on the back of mice by air injection (2.5 ml s.c.) on day 0 and day 3 (Perretti and Flower, 1993).
Zymosan A was allowed to defrost at room temperature for 30 min prior to being added to sterile PBS at a concentration of 2 mg/ml forming a homogenous suspension.
(§2) At time 0, mice received either 0.5 ml of zymosan (1 mg) (group A, B, C) injected locally into the air-pouch. Group D and E were left untreated at this time-point. At 4 h post-zymosan the animals were placed in CO2. Air-pouches were then washed with 2 ml of PBS containing 3 mM EDTA, and livers were recovered and snap frozen for later analysis.
The number of migrated leukocytes (≧90% polymorphonuclear leukocytes, PMN) was determined in the lavage fluid from each air-pouch, by taking an aliquot (100 μl) of the lavage fluid and diluting 1:10 in Turk's solution (0.01% crystal violet in 3% acetic acid). The samples were then vortexed and 10 μl of the stained cell solution were placed in a Neubauer haematocymometer and neutrophils numbers counted using a light microscope (Olympus B061).
Neutrophil numbers were compared between groups using ANOVA plus the Bonferroni test. TAT levels were compared using a t-test.

[4] = system: tyrosine amino transferase (TAT); assay: Quantitation of tyrosine amino transferase (TAT) in the livers of air pouch mice; type: in vivo; conditions: 3 μg i.p., FIG. 22
Method: as §2
Quantitation of Tyrosine Amino Transferase (TAT) Protein in the Livers: In this method a colourimetric approach is used to quantitate TAT activity. The TAT enzyme catalyses the following reaction: L-tyrosine+2-oxoglutarate⇄4-hydroxyphenylpyruvate (pHPP)+L-glutamate
This reaction also requires pyridoxal phosphate (PLP) as a co-factor. Strong alkali conditions can then be used to convert pHPP to p-hydroxybenzaldehyde (pHBA) and oxalate. The amount of pHBA can then be assessed by measuring its absorbance at 331 nm (extinction coefficient 19,900 M^−1cm^−1) this figure is then assumed to be directly proportional to TAT activity. Livers were homogenized and the cells were stored on ice. […]
as §1

binding to the progesterone receptor (progesterone receptor): not to bind to the progesterone receptor
Compound: CCCNC(=O)C1(O)C(C)CC2C3CCC4=CC(=O)C=CC4(C)C3(F)C(O)CC21C (stereo not drawn) [Compound G]
TAT activity compared to dexamethasone [1]: significant reduction in TAT activity | binding to other members of the steroid receptor super family [2]: not to bind to other members of the steroid receptor super family | Neutrophils (10^6 per mouse) ([3]; 3 μg i.p. at -1 h, Zymosan 1 mg into air-pouch, 4 h time-point, mean ± S.E. of 8 mice): 6.33 ± 0.79 * 10^6 per mouse | reduction of neutrophil accumulation ([3]; 3 μg i.p., zymosan air pouch, 4 h): ~30% | liver TAT level compared with vehicle control groups [4]: does not cause-induction; also recorded: did not reduce the level of TAT
